Holding throughout (assay type): biochemical
The target in one assay is T1, wild type UL97 (Human cytomegalovirus, UniProt Q68101).
T1 construct: PCR reaction to generate the full length UL97; honey bee melittin secretion signal (N); made in house; host or cells: Sf21 insect cells, recombinant baculovirus (pMelBac C)
In words: UL97 autophosphorylation protein kinase assay, wild type. Here is the method: (§1) Analysis of the autophosphorylation of wild type and mutant UL97 protein species was performed by a standard protein kinase assay as previously described (46). Briefly, purified protein was added to 2× protein kinase buffer (100 mM Tris HCl, pH9.0, 20 mM MgCl2, 10 μM ATP, 4 mM DTT, 2 M NaCl) and 370 KBq [γ^32P] ATP (Amersham), made up to 20 μl with SDW and incubated at 37°C. The reactions were terminated by the addition of 2× SDS sample buffer followed by boiling for 3 minutes. The amount of radiolabelled phosphate incorporated by autophosphorylation was analysed by SDS-PAGE and measured using the Biorad Mulitanalyst. The protein kinase assays were initially performed for 2 to 60 minutes to determine the maximum rate of phosphate incorporation, all assays were then performed at the maximum rate which equated to 5 minutes.
Enzyme kinetic analysis was performed on the purified wild type and mutant UL97 protein species as above using increasing concentrations of ATP (2 μM to 20 μM). The amount of incorporated radiolabelled phosphate was plotted against the concentration of ATP in a Lineweaver Burke plot to determine the Km for ATP for each UL97 species. The effect of maribavir upon the rate of radiolabelled phosphate incorporation by wild type or mutant UL97 was determined by protein kinase assays at a fixed concentration of maribavir (0.5 μM) as above, or with increasing concentrations of maribavir (0.01 μM to 5.0 μM) to determine the IC50 of maribavir for each UL97 species. In order to determine the nature of the inhibition mediated by maribavir, plots of 1/v vs 1/ATP with increasing concentrations of maribavir were constructed. Competitive inhibition was evident if the family of lines cconverged on the y-axis at 1/Vmax. The change in slope caused by the addition of maribavir was used to calculate the Ki using standard enzyme kinetic equations viz.

A further assay concerns the target T2, UL97 H520Q (Human cytomegalovirus, UniProt Q68101, H520Q).
T2 construct: PCR reaction to generate the full length UL97; honey bee melittin secretion signal (N); made in house; host or cells: Sf21 insect cells, recombinant baculovirus (pMelBac C)
T2 sequence (Q68101 1-707 H520Q): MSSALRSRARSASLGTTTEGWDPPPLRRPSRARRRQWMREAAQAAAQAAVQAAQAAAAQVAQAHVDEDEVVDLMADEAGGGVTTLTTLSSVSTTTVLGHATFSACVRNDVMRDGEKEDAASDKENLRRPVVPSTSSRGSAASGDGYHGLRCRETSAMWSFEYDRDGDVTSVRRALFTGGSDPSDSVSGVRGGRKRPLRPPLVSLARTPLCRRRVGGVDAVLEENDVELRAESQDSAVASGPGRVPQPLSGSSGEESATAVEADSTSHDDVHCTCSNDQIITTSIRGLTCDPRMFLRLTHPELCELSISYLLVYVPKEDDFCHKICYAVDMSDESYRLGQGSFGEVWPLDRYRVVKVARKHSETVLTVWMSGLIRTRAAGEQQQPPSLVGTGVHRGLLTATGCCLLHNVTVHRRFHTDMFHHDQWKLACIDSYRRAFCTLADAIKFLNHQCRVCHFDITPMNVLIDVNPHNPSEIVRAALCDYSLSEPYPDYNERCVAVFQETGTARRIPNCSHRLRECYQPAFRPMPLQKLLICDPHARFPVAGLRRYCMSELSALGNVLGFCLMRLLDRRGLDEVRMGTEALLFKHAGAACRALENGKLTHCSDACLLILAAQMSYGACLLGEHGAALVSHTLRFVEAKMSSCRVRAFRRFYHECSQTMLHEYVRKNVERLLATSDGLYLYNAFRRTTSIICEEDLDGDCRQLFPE
In words: UL97 autophosphorylation protein kinase assay, H520Q. As for the experimental part:
as §1
(§2) Enzyme kinetic analysis was performed on the purified wild type and mutant UL97 protein species as above using increasing concentrations of ATP (2 μM to 20 μM). The amount of incorporated radiolabelled phosphate was plotted against the concentration of ATP in a Lineweaver Burke plot to determine the Km for ATP for each UL97 species. […]

In the next assay the target is T3, UL97 H662L (Human cytomegalovirus, UniProt Q68101, H662L).
T3 construct: PCR reaction to generate the full length UL97; honey bee melittin secretion signal (N); made in house; host or cells: Sf21 insect cells, recombinant baculovirus (pMelBac C)
T3 sequence (Q68101 1-707 H662L): T2 sequence (Q68101 1-707 H520Q) with Q520H, H662L
As to the kind of experiment: UL97 autophosphorylation protein kinase assay, H662L. The settings on record: H662L mutant. As for the experimental part: as §1, §2

Substitutions are numbered along the chain they refer to.

T1 sequence (Q68101 whole entry): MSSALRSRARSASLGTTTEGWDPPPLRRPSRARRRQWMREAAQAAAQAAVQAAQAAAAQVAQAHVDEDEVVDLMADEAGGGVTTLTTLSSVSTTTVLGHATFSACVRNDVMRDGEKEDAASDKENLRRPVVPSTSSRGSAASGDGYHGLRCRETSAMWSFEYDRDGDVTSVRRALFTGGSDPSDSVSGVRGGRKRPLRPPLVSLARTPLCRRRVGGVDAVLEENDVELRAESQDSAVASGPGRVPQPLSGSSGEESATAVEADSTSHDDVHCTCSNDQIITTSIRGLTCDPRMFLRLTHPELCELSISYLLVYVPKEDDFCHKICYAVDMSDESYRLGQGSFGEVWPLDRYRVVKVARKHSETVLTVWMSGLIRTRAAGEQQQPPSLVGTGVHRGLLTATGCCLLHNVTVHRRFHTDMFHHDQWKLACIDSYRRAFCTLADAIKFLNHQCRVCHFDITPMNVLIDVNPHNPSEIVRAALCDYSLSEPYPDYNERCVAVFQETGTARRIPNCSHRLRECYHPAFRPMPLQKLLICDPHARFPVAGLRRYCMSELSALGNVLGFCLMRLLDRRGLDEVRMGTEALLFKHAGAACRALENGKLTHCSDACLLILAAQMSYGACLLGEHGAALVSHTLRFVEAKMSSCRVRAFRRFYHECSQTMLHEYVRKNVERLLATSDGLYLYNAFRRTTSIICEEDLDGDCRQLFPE

Turning to `Nc1ncnc2c1ncn2[C@@H]1O[C@H](COP(=O)(O)OP(=O)(O)OP(=O)(O)O)[C@@H](O)[C@H]1O` [ATP], the Km on wild type UL97 (wild type UL97, ATP 2 μM to 20 μM, 5 minutes) stood at 27 ± 2.2 µM; at UL97 H520Q (H520Q, read-out: Km for ATP), 25 ± 2.4 µM.
For the molecule `CC(C)Nc1nc2cc(Cl)c(Cl)cc2n1[C@H]1O[C@@H](CO)[C@H](O)[C@@H]1O` [maribavir, 5,6-dichloro-2-(isopropylamino)-1-beta-L-ribofuranosyl-1H-benzimidazole], at wild type UL97 (maribavir 0.5 μM, normalised relative to wild type, mean and SD of triplicate), the “% autophosphorylation Plus Maribavir” value came to 4.5 ± 2.0%. Also, the “nature of the inhibition” value on wild type UL97 (wild type UL97, 1/v vs 1/ATP with increasing maribavir) was “competitive inhibitor of ATP”. Besides, the inhibition constant Ki on wild type UL97 (wild type UL97, competitive with ATP (2 μM to 20 μM), Lineweaver Burke plot) amounted to 10 nM. The IC50 at wild type UL97 (wild type UL97, increasing concentrations of maribavir) stood at 34 nM; at UL97 H662L, 40 nM; at UL97 H520Q (H520Q mutant), 33 nM.

Values taken from article PMC3050433, “The effects of maribavir on the autophosphorylation of ganciclovir resistant mutants of the cytomegalovirus UL97 protein” (Herpesviridae, 2010).
